Data as given in article PMC5867665, “Targeting Multiple Effector Pathways in Pancreatic Ductal Adenocarcinoma with a G-Quadruplex-Binding Small Molecule” (Journal of Medicinal Chemistry, 2018).

Legend:
[1] = system: MIA PaCa-2 pancreatic tumor xenograft; experiment: Subcutaneous MIA PaCa-2 pancreatic tumor xenograft therapy study; type: in vivo; conditions: for tumor regrowth after dosing stopped: 15 mg/kg, from day 28 onward
Description: To determine if the in vitro activity of CM03 was paralleled in vivo, we explored the activity of CM03 in a mouse xenograft model of PDAC. We have previously reported that the maximum tolerated dosage (MTD) for intravenous (IV) administration of MM41 is 25 mg/kg.[33] CM03 was well tolerated, up to a dosage of 45–50 mg/kg, as judged by a dose-escalation MTD study. A therapeutic schedule of two CM03 intravenous (IV) doses was explored using a subcutaneous MIA PaCa-2 pancreatic tumor xenograft model derived from the human cell line used in the cell growth inhibition studies. A group size of eight CD-1 nude mice was used, and dosing was conducted at 10 and 15 mg/kg, each twice weekly, over a period of 4 weeks (28 days: 8 doses). Two further groups were given either MM41 or gemcitabine at 15 mg/kg and received the same dose regimen. […] IVIS imaging of treated mice was performed by taking account of the intrinsic fluorescence of CM03. […] Thus, in contrast to MM41 and gemcitabine, the higher-dose CM03 treatment results in a statistically significant (p < 0.001) antitumor effect, which persisted long after dosing had ceased, up to the termination of the xenograft experiment (62 days).
For therapy studies, female CD-1 nude mice (2–3 months old, weighing 20–25 g) were injected subcutaneously with 5 × 10^6 MIA PaCa-2 cells in the right flank (unsupplemented RPMI + Matrigel). When the tumors were established (approximately 13 days, mean size 0.05 cm^3), the mice were divided into five treatment groups with eight mice/group. The MM41 and CM03 samples were dissolved directly in saline to the required concentrations and administered IV. Tumor size was measured weekly by calliper using the π-based ellipsoid volume formula (length × width × height × π/6) every 3–4 days, and the mice were also weighed and examined at the same time to determine any signs of toxicity from the drug.
• Group 1:15 mg/kg of gemcitabine (Sigma), twice weekly dose. • Group 2:15 mg/kg of MM41, twice weekly dose. • Group 3:10 mg/kg of CM03, twice weekly dose. • Group 4:15 mg/kg of CM03, twice weekly dose. • Group 5: saline only, twice weekly dose.
The xenograft data was analyzed using Student’s t test (GraphPad Inc.). Responses were considered to be significant for those with probabilities (p) less than 5% (p < 0.05). Mice were culled if there was any sign of tumor ulceration, if tumor volume exceeded 1.5 cm^3, or if a weight loss over 20% of initial body weight was observed. Samples of liver, kidney, and spleen from each animal in the CM03 (15 mg/kg) and untreated control groups were excised at the end of the therapy experiment, then fixed in 10% neutral buffered formalin for at least 48 h prior to processing and paraffin embedding. Tissue slices were stained with hematoxylin and eosin and assessed visually for any obvious differences compared with controls, indicative of toxicity and tissue damage. For the imaging study mice were anesthetized using isoflurane and imaged using the IVIS preclinical imaging system from PerkinElmer. Images were captured after 4 h following intravenous administration of CM03 using Cy5.5 excitation for 5 s.

[2] = system: MIA PaCa-2 and PANC-1 cells; experiment: RT-qPCR validation of down-regulated genes; type: cell-based, human
Source text: The RNA-seq results are consistent with the hypothesis that G4 ligands can alter gene expression when PQs are targets in individual genes.[23] Previously, global G4-motif specific changes in the transcriptome with bisquinolinium compounds in HeLa cells have been reported using microarray analysis.[48] However, our work represents the first comprehensive analysis using state-of-the-art RNA-seq methodology. […] The observed transcriptional effects of CM03 also align with the hypothesis that down-regulation of gene expression is mediated through ligand-stabilized G4s, causing for example steric hindrance and inhibition of RNA pol II in the transcription bubble (reviewed in ref ([23])). The observations that transcriptional effects are closely aligned in two PDAC cell lines, independently sequenced, gives added confidence to these conclusions.
MIA PaCa-2 (6 h = 2.5 × 10^6 and 24 h = 1.0 × 10^6 cells/well) and PANC-1 (6 h = 1.0 × 10^6 and 24 h = 0.5 × 10^6 cells/well) cell lines were seeded in 100 mm plates and incubated overnight. […] The concentration of harvested RNA was measured with a NanoDrop 2000/2000c spectrophotometer (ThermoFisher). […] The Ct values were normalized to the genomic mean of three housekeeping genes ACTB, GAPDH, and TUBB, and the fold change was determined using 2^–ΔΔCt.

[3] = 15 mg/kg IV twice weekly for 28 days

SMILES | MTV ± SEM (Day 62) ([1]; 10 mg/kg IV twice weekly for 28 days) | IVIS imaging, accumulation in tumor xenograft ([1]; 10 mg/kg, 4 h after IV administration) | MTV ± SEM (Day 29) [1, 3] | MTV ± SEM (Day 62) [1, 3] | animals with tumor volumes that shrank to <0.05 cm^3 by day 62 ([1]; 15 mg/kg cohort) | body weight and adverse effects ([1]; 15 mg/kg cohort, any time during the study) | tumor regrowth after dosing stopped [1] | histopathological analysis of vital organs ([1]; animals sacrificed at the end of the experiments) | RT-qPCR expression of a small set of PDAC-pathway genes ([2]; 400 nM CM03, 6 and 24 h) | RT-qPCR expression of a small set of PDAC-pathway genes ([2]; 400 nM gemcitabine, 6 and 24 h)
O=C1c2ccc3c4c(c(NCCN5CCCC5)cc(c24)C(=O)N1CCCN1CCOCC1)C(=O)N(CCCN1CCOCC1)C3=O [CM03, 2,7-bis(3-morpholinopropyl)-4-((2-(pyrrolidin-1-yl)ethyl)amino)benzo[lmn][3,8]phenanthroline-1,3,6,8(2H,7H)-tetraone] | 0.29 ± 0.10 cm^3 | significant accumulation of CM03 in the tumor xenograft | 0.04 ± 0.02 cm^3 | 0.09 ± 0.05 cm^3 | Five out of the eight | No body weight reduction | no tumor regrowth was observed | no sign of organ damage | transcriptionally down-regulated in both cell lines | 
Nc1ccn([C@@H]2O[C@H](CO)[C@@H](O)C2(F)F)c(=O)n1 [gemcitabine, reference compound] |  |  | 0.05 ± 0.02 cm^3 | 0.23 ± 0.10 cm^3 |  |  | tumor regrowth being apparent as soon as dosing was stopped |  |  | not significantly affected
